“And” between values parts separate entries of the source, which are not always exact repeats. Equal values may be shown once.
Assays:
[1] = mn = molality of the nth substance listed, in mol/kg; settings: 101 kPa, Liquid; for speed of sound: Sing-around technique in a fixed-path interferometer; for mass density: Vibrating tube method
[2] = 283.15 K; 101 kPa; Liquid; Vibrating tube method

C[C@H](N)C(=O)O [(S)-2-aminopropanoic acid] + O
[1]
Settings | mass density, m1 = 0.23 | mass density, m1 = 0.47 | mass density, m1 = 0.72 | speed of sound, m1 = 0.23 | speed of sound, m1 = 0.47 | speed of sound, m1 = 0.72
283.15 K | 1006.29 kg/m3 and 1006.34 kg/m3 | 1012.74 kg/m3 and 1012.69 kg/m3 | 1018.71 kg/m3 and 1019.09 kg/m3 | 1464.4 m/s and 1464.1 m/s | 1480.4 m/s and 1480.5 m/s | 1496.7 m/s and 1495.8 m/s
288.15 K | 1005.65 kg/m3 and 1005.61 kg/m3 | 1011.96 kg/m3 and 1011.92 kg/m3 | 1017.87 kg/m3 and 1018.24 kg/m3 | 1482 m/s and 1481.8 m/s | 1497.6 m/s and 1497.4 m/s | 1512.2 m/s and 1513 m/s
293.15 K | 1004.68 kg/m3 and 1004.64 kg/m3 | 1010.93 kg/m3 and 1010.89 kg/m3 | 1016.77 kg/m3 and 1017.14 kg/m3 | 1497.7 m/s and 1497.4 m/s | 1512.4 m/s and 1512.6 m/s | 1527.5 m/s and 1526.7 m/s
298.15 K | 1003.46 kg/m3 and 1003.43 kg/m3 | 1009.62 kg/m3 and 1009.66 kg/m3 | 1015.82 kg/m3 and 1015.45 kg/m3 | 1511.4 m/s and 1511.1 m/s | 1525.6 m/s and 1525.8 m/s | 1540.1 m/s and 1539.4 m/s
303.15 K | 1001.98 kg/m3 and 1002.01 kg/m3 | 1008.13 kg/m3 and 1008.17 kg/m3 | 1014.29 kg/m3 and 1013.92 kg/m3 | 1523.3 m/s and 1523.1 m/s | 1537.1 m/s and 1537.2 m/s | 1551 m/s and 1550.3 m/s
308.15 K | 1000.33 kg/m3 and 1000.36 kg/m3 | 1006.44 kg/m3 and 1006.48 kg/m3 | 1012.57 kg/m3 and 1012.19 kg/m3 | 1533.6 m/s and 1533.3 m/s | 1546.9 m/s and 1547 m/s | 1560.4 m/s and 1559.7 m/s

O [water]
Settings | mass density [kg/m3]
[2] | 999.699

— the NIST ThermoML archive (doi:10.1021/je700288s)
